Reference: patent publication US9358023B2, “Systems and methods for opening of a tissue barrier” (priority 2009, dated 2016)
“Also recorded” adds a separate entry of the source. Values belong to the molecule of their own block, whether it stands above or below them.

What was measured:
blood-brain barrier [1] = experiment: FUS and microbubble BBB opening: fluorescent dextran delivery to the sonicated hippocampus, quantified as NOD;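 further: male wild-type C57BL/6 mice, left hippocampus sonicated with untargeted right hippocampus as control, read by fluorescence microscopy of frozen horizontal brain sections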
blood-brain barrier [2] = settings: mouse
[3] = PL 3.5 cycles, PRF 6.25 kHz, BRF 0.1 Hz, BL 1000 pulses, pressure 0.51
[4] = PL 3.5 cycles, PRF 6.25 kHz, BRF 1 Hz, BL 1000 pulses, pressure 0.51
[5] = PL 3.5 cycles, PRF 6.25 kHz, BRF 2 Hz, BL 1000 pulses, pressure 0.51
[6] = PL 3.5 cycles, PRF 6.25 kHz, BRF 5 Hz, BL 1000 pulses, pressure 0.51
[7] = PL 3.5 cycles, PRF 6.25 kHz, pulses emitted continuously without bursts, pressure 0.51
[8] = PL 3.5 cycles, PRF 25 kHz, BRF 0.1 Hz, BL 1000 pulses, pressure 0.51
[9] = PL 3.5 cycles, PRF 25 kHz, BRF 1 Hz, BL 1000 pulses, pressure 0.51
[10] = PL 3.5 cycles, PRF 25 kHz, BRF 2 Hz, BL 1000 pulses, pressure 0.51
[11] = PL 3.5 cycles, PRF 25 kHz, BRF 5 Hz, BL 1000 pulses, pressure 0.51
[12] = PL 3.5 cycles, PRF 25 kHz, BRF 10 Hz, BL 1000 pulses, pressure 0.51
[13] = PL 3.5 cycles, PRF 25 kHz, pulses emitted continuously without bursts, pressure 0.51
[14] = PL 3.5 cycles, PRF 100 kHz, BRF 0.1 Hz, BL 1000 pulses, pressure 0.51
[15] = PL 3.5 cycles, PRF 100 kHz, BRF 1 Hz, BL 1000 pulses, pressure 0.51
[16] = PL 3.5 cycles, PRF 100 kHz, BRF 2 Hz, BL 1000 pulses, pressure 0.51
[17] = PL 3.5 cycles, PRF 100 kHz, BRF 5 Hz, BL 1 pulse, pressure 0.51
[18] = PL 3.5 cycles, PRF 100 kHz, BRF 5 Hz, BL 5 pulses, pressure 0.51
[19] = PL 3.5 cycles, PRF 100 kHz, BRF 5 Hz, BL 10 pulses, pressure 0.51
[20] = PL 3.5 cycles, PRF 100 kHz, BRF 5 Hz, BL 50 pulses, pressure 0.51
[21] = PL 3.5 cycles, PRF 100 kHz, BRF 5 Hz, BL 100 pulses, pressure 0.51
[22] = PL 3.5 cycles, PRF 100 kHz, BRF 5 Hz, BL 500 pulses, pressure 0.51
[23] = PL 3.5 cycles, PRF 100 kHz, BRF 5 Hz, BL 1000 pulses, pressure 0.13
[24] = PL 3.5 cycles, PRF 100 kHz, BRF 5 Hz, BL 1000 pulses, pressure 0.25
[25] = PL 3.5 cycles, PRF 100 kHz, BRF 5 Hz, BL 1000 pulses, pressure 0.37
[26] = PL 3.5 cycles, PRF 100 kHz, BRF 5 Hz, BL 1000 pulses, pressure 0.51
[27] = PL 3.5 cycles, PRF 100 kHz, BRF 10 Hz, BL 1000 pulses, pressure 0.51
[28] = PL 3.5 cycles, PRF 100 kHz, pulses emitted continuously without bursts, pressure 0.51
[29] = microbubble 0.01 μL/g, PRF 10 Hz, PL 20 ms, 0.46 MPa, 11-minute sonication
[30] = microbubble 0.05 μL/g injected over 180 seconds, PRF 5 Hz, PL 0.2 ms, 0.46 MPa
[31] = microbubble 0.05 μL/g, PRF 0.1 Hz, PL 20 ms, 0.46 MPa, 11-minute sonication
[32] = microbubble 0.05 μL/g, PRF 1 Hz, PL 20 ms, 0.46 MPa, 11-minute sonication
[33] = microbubble 0.05 μL/g, PRF 5 Hz, PL 0.2 ms, 0.46 MPa, 11-minute sonication
[34] = microbubble 0.05 μL/g, PRF 5 Hz, PL 20 ms, 0.46 MPa, 11-minute sonication
[35] = microbubble 0.05 μL/g, PRF 10 Hz, PL 0.03 ms, 0.46 MPa, 11-minute sonication
[36] = microbubble 0.05 μL/g, PRF 10 Hz, PL 0.1 ms, 0.46 MPa, 11-minute sonication
[37] = microbubble 0.05 μL/g, PRF 10 Hz, PL 0.2 ms, 0.46 MPa, 11-minute sonication
[38] = microbubble 0.05 μL/g, PRF 10 Hz, PL 1 ms, 0.46 MPa, 11-minute sonication
[39] = microbubble 0.05 μL/g, PRF 10 Hz, PL 2 ms, 0.46 MPa, 11-minute sonication
[40] = microbubble 0.05 μL/g, PRF 10 Hz, PL 10 ms, 0.46 MPa, 11-minute sonication
[41] = microbubble 0.05 μL/g, PRF 10 Hz, PL 20 ms, 0.46 MPa, 11-minute sonication
[42] = microbubble 0.05 μL/g, PRF 10 Hz, PL 20 ms, 0.46 MPa, microbubble and dextran 1 minute before a 30-second sonication
[43] = microbubble 0.05 μL/g, PRF 10 Hz, PL 30 ms, 0.46 MPa, 11-minute sonication
[44] = microbubble 0.05 μL/g, PRF 25 Hz, PL 20 ms, 0.46 MPa, 11-minute sonication
[45] = microbubble 0.25 μL/g, PRF 10 Hz, PL 20 ms, 0.46 MPa, 11-minute sonication
[46] = sham mouse, no ultrasound applied, microbubble 0.05 μL/g

increase in NOD (significance) (blood-brain barrier [1]; 100-kHz PRF, 5-Hz BRF, 0.51 MPa, 1000 pulse BL): Significant increases
NOD (mean ± std. dev.) (blood-brain barrier [1]; [3]): 0.68 ± 0.47 × 1e9
NOD (mean ± std. dev.) (blood-brain barrier [1]; [4]): 0.78 ± 0.85 × 1e9
NOD (mean ± std. dev.) (blood-brain barrier [1]; [5]): −0.16 ± 0.67 × 1e9
NOD (mean ± std. dev.) (blood-brain barrier [1]; [6]): 0.56 ± 0.95 × 1e9
NOD (mean ± std. dev.) (blood-brain barrier [1]; [7]): −0.11 ± 0.35 × 1e9
NOD (mean ± std. dev.) (blood-brain barrier [1]; [8]): 0.35 ± 0.10 × 1e9
NOD (mean ± std. dev.) (blood-brain barrier [1]; [9]): 1.92 ± 0.10 × 1e9
NOD (mean ± std. dev.) (blood-brain barrier [1]; [10]): 3.34 ± 1.35 × 1e9
NOD (mean ± std. dev.) (blood-brain barrier [1]; [11]): 1.48 ± 0.77 × 1e9
NOD (mean ± std. dev.) (blood-brain barrier [1]; [12]): 1.31 ± 1.35 × 1e9
NOD (mean ± std. dev.) (blood-brain barrier [1]; [13]): 0.30 ± 0.20 × 1e9
NOD (mean ± std. dev.) (blood-brain barrier [1]; [14]): 0.99 ± 0.85 × 1e9
NOD (mean ± std. dev.) (blood-brain barrier [1]; [15]): 1.45 ± 0.73 × 1e9
NOD (mean ± std. dev.) (blood-brain barrier [1]; [16]): 3.08 ± 2.76 × 1e9
NOD (mean ± std. dev.) (blood-brain barrier [1]; [17]): 0.01 ± 0.11 × 1e9
NOD (mean ± std. dev.) (blood-brain barrier [1]; [18]): 0.13 ± 0.17 × 1e9
NOD (mean ± std. dev.) (blood-brain barrier [1]; [19]): 2.14 ± 1.33 × 1e9
NOD (mean ± std. dev.) (blood-brain barrier [1]; [20]): 2.20 ± 0.54 × 1e9
NOD (mean ± std. dev.) (blood-brain barrier [1]; [21]): 3.60 ± 0.95 × 1e9
NOD (mean ± std. dev.) (blood-brain barrier [1]; [22]): 3.30 ± 0.58 × 1e9
NOD (mean ± std. dev.) (blood-brain barrier [1]; [23]): 0.10 ± 0.21 × 1e9
NOD (mean ± std. dev.) (blood-brain barrier [1]; [24]): 0.10 ± 0.16 × 1e9
NOD (mean ± std. dev.) (blood-brain barrier [1]; [25]): 0.60 ± 0.48 × 1e9
NOD (mean ± std. dev.) (blood-brain barrier [1]; [26]): 6.14 ± 1.45 × 1e9
NOD (mean ± std. dev.) (blood-brain barrier [1]; [27]): 2.01 ± 1.44 × 1e9
NOD (mean ± std. dev.) (blood-brain barrier [1]; [28]): 0.21 ± 0.32 × 1e9
NOD (mean ± std. dev.) (blood-brain barrier [1]; [29]): 2.89 ± 1.99 × 1e9
Number of mice with delivered dextran (blood-brain barrier [1]; [29]): 5/5
NOD (mean ± std. dev.) (blood-brain barrier [1]; [30]): 1.58 ± 1.37 × 1e9
Number of mice with delivered dextran (blood-brain barrier [1]; [30]): 5/5
NOD (mean ± std. dev.) (blood-brain barrier [1]; [31]): −0.17 ± 0.17 × 1e9
Number of mice with delivered dextran (blood-brain barrier [1]; [31]): 0/5
NOD (mean ± std. dev.) (blood-brain barrier [1]; [32]): 3.77 ± 4.52 × 1e9
Number of mice with delivered dextran (blood-brain barrier [1]; [32]): 3/5
NOD (mean ± std. dev.) (blood-brain barrier [1]; [33]): 2.02 ± 1.38 × 1e9
Number of mice with delivered dextran (blood-brain barrier [1]; [33]): 5/5
NOD (mean ± std. dev.) (blood-brain barrier [1]; [34]): 4.21 ± 2.05 × 1e9
Number of mice with delivered dextran (blood-brain barrier [1]; [34]): 5/5
NOD (mean ± std. dev.) (blood-brain barrier [1]; [35]): 0.78 ± 1.41 × 1e9
Number of mice with delivered dextran (blood-brain barrier [1]; [35]): 2/5
NOD (mean ± std. dev.) (blood-brain barrier [1]; [36]): 1.20 ± 1.05 × 1e9
Number of mice with delivered dextran (blood-brain barrier [1]; [36]): 5/6
NOD (mean ± std. dev.) (blood-brain barrier [1]; [37]): 0.98 ± 0.67 × 1e9
Number of mice with delivered dextran (blood-brain barrier [1]; [37]): 5/5
NOD (mean ± std. dev.) (blood-brain barrier [1]; [38]): 4.07 ± 3.71 × 1e9
Number of mice with delivered dextran (blood-brain barrier [1]; [38]): 5/5
NOD (mean ± std. dev.) (blood-brain barrier [1]; [39]): 1.84 ± 1.44 × 1e9
Number of mice with delivered dextran (blood-brain barrier [1]; [39]): 4/5
NOD (mean ± std. dev.) (blood-brain barrier [1]; [40]): 4.76 ± 2.03 × 1e9
Number of mice with delivered dextran (blood-brain barrier [1]; [40]): 5/5
NOD (mean ± std. dev.) (blood-brain barrier [1]; [41]): 4.45 ± 2.08 × 1e9
Number of mice with delivered dextran (blood-brain barrier [1]; [41]): 5/5
NOD (mean ± std. dev.) (blood-brain barrier [1]; [42]): 4.91 ± 0.94 × 1e9
Number of mice with delivered dextran (blood-brain barrier [1]; [42]): 5/5
NOD (mean ± std. dev.) (blood-brain barrier [1]; [43]): 5.77 ± 1.73 × 1e9
Number of mice with delivered dextran (blood-brain barrier [1]; [43]): 5/5
NOD (mean ± std. dev.) (blood-brain barrier [1]; [44]): 4.58 ± 1.40 × 1e9
Number of mice with delivered dextran (blood-brain barrier [1]; [44]): 5/5
NOD (mean ± std. dev.) (blood-brain barrier [1]; [45]): 5.34 ± 2.12 × 1e9
Number of mice with delivered dextran (blood-brain barrier [1]; [45]): 5/5
NOD (mean ± std. dev.) (blood-brain barrier [1]; [46]): 0.01 ± 0.23 × 1e9
Number of mice with delivered dextran (blood-brain barrier [1]; [46]): 0/5
Molecule: dextran
Incidence of NOD increase (blood-brain barrier [1]; [3]): 2/3
Incidence of NOD increase (blood-brain barrier [1]; [4]): 2/3
Incidence of NOD increase (blood-brain barrier [1]; [5]): 1/3
Incidence of NOD increase (blood-brain barrier [1]; [6]): 2/3
Incidence of NOD increase (blood-brain barrier [1]; [7]): 1/3
Incidence of NOD increase (blood-brain barrier [1]; [8]): 2/3
Incidence of NOD increase (blood-brain barrier [1]; [9]): 3/3
Incidence of NOD increase (blood-brain barrier [1]; [10]): 3/3
Incidence of NOD increase (blood-brain barrier [1]; [11]): 3/3
Incidence of NOD increase (blood-brain barrier [1]; [12]): 2/3
Incidence of NOD increase (blood-brain barrier [1]; [13]): 1/3
Incidence of NOD increase (blood-brain barrier [1]; [14]): 2/3
Incidence of NOD increase (blood-brain barrier [1]; [15]): 3/3
Incidence of NOD increase (blood-brain barrier [1]; [16]): 3/3
Incidence of NOD increase (blood-brain barrier [1]; [17]): 0/3
Incidence of NOD increase (blood-brain barrier [1]; [18]): 1/3
Incidence of NOD increase (blood-brain barrier [1]; [19]): 3/3
Incidence of NOD increase (blood-brain barrier [1]; [20]): 3/3
Incidence of NOD increase (blood-brain barrier [1]; [21]): 3/3
Incidence of NOD increase (blood-brain barrier [1]; [22]): 3/3
Incidence of NOD increase (blood-brain barrier [1]; [23]): 1/3
Incidence of NOD increase (blood-brain barrier [1]; [24]): 1/3
Incidence of NOD increase (blood-brain barrier [1]; [25]): 2/3
Incidence of NOD increase (blood-brain barrier [1]; [26]): 3/3
Incidence of NOD increase (blood-brain barrier [1]; [27]): 3/3
Incidence of NOD increase (blood-brain barrier [1]; [28]): 1/3
spatial distribution of delivered dextran fluorescence in the target ROI (blood-brain barrier [1]; bursts of 3.5-cycle pulses, 100-kHz PRF, 5-Hz BRF, 0.51 MPa, 1000 pulse BL, listed as 3-kDa dextran): distributed most homogeneously and across a larger area than the other two molecular weights; also recorded: homogeneous and diffuse spatial distribution

B1: GDNF: glia-derived neurotrophic factor (protein, UniProt P39905 78-211, looked up)
Glial cell line-derived …: SPDKQMAVLPRRERNRQAAAANPENSRGKGRRGQRGKNRGCVLTAIHLNVTDLGLGYETKEELIFRYCSGSCDAAETTYDKILKNLSRNRRLVSDKVGQACCRPIAFDDDLSFLDDNLVYHILRKHSAKRCGCI
permeation through the FUS-opened BBB into the parenchyma (blood-brain barrier [2]): does not
fluorescence post-mortem in brain, kidneys, liver, bladder or testes (blood-brain barrier [2]; in vivo): no fluorescence was found
time within which the protein may be broken down in circulation (blood-brain barrier [2]; in vivo): ≤ 45 s

B2: Neurturin: neurotrophic factor neurturin (NTN) (protein, UniProt Q99748 96-197, looked up)
Neurturin: ARLGARPCGLRELEVRVSELGLGYASDETVLFRYCAGACEAAARVYDLGLRRLRQRRRLRRERVRAQPCCRPTAYEDEVSFLDAHSRYHTVHELSARECACV
permeation through the FUS-opened BBB into the parenchyma (blood-brain barrier [2]): permeating through the opened barrier and into the parenchyma
